Measured values: paper PMC11386433 (Journal of Medicinal Chemistry, 2024)
Like-named read-outs stand apart in the source and are kept apart here.

Key:
[1] = target: T1, δOR (Homo sapiens, UniProt P41143); type: binding; design: host or cells: CHO-K1; conditions: labeled with 1 μM
[2] = target: T2, human μOR (Homo sapiens, UniProt P35372); assay: biochemical; type: binding
T2 construct: host or cells: HEK293T (membrane preparation)

[3] = target: T1, δOR; assay: cell-based; type: cell-based; design: Gαqi gift from The J. David Gladstone Institutes; host or cells: HEK293T; conditions: for Emax: HEK-293T, read-out: Emax (agonist properties); for response in agonist mode: IP-One assay
[4] = target: T1, δOR; assay: cell-based; type: cell-based; design: host or cells: HEK293T stably expressing EA-β-arrestin-2; conditions: for Emax: HEK-293T, read-out: Emax (agonist properties); for response in agonist mode: β-arrestin-2 recruitment
[5] = target: T3, wild-type human δOR (Homo sapiens, UniProt P41143); assay: Single-molecule microscopy of CHO cells transfected with wild-type δOR; type: cell-based
T3 construct: host or cells: CHO-K1
T3 sequence (P41143 whole entry): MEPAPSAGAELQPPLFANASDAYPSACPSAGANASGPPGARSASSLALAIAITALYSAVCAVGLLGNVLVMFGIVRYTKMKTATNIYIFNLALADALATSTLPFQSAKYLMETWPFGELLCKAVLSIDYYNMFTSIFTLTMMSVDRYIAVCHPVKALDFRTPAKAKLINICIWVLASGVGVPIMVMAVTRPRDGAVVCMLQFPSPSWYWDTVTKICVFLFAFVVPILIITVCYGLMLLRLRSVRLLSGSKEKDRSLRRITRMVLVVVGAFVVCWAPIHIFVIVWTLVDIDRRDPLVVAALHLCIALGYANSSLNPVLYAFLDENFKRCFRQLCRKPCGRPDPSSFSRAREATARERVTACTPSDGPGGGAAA

[6] = target: T4, human κOR (Homo sapiens, UniProt P41145); assay: biochemical; type: binding
T4 construct: host or cells: HEK293T (membrane preparation)
T4 sequence (P41145 whole entry): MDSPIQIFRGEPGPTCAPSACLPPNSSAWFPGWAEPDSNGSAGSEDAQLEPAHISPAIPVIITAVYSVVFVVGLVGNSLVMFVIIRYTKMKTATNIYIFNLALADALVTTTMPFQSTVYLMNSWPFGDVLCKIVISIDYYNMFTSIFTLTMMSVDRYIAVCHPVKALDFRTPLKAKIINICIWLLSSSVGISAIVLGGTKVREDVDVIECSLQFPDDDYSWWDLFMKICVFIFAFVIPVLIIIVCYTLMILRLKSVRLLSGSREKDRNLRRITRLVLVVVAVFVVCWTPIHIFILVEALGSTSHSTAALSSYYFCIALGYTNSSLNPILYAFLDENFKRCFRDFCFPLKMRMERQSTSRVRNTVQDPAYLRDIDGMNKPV

[7] = target: T5, μOR (SNAP-opioid receptor) (Homo sapiens, UniProt P35372); assay: HTRF saturation binding of fluorescent ligand to SNAP-opioid receptors on HEK293T cells
T5 construct: host or cells: HEK293T
T5 sequence (P35372 whole entry): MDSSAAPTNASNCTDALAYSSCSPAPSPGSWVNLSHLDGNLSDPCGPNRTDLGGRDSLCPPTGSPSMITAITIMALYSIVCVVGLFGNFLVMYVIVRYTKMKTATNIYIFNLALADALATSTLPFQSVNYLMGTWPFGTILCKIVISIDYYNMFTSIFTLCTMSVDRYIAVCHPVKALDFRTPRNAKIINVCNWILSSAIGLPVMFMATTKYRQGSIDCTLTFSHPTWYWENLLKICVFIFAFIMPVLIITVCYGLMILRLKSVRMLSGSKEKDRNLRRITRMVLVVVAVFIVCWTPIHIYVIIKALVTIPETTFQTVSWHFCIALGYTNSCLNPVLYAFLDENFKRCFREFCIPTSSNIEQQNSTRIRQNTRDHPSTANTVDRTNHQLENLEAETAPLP

[8] = target: T6, κOR (SNAP-opioid receptor) (Homo sapiens, UniProt P41145); assay: as above
T6 construct: host or cells: HEK293T
T6 sequence (P41145 whole entry): as the sequence (P41145 whole entry) above

[9] = target: T7, δOR (SNAP-opioid receptor) (Homo sapiens, UniProt P41143); assay: as above; conditions: HTRF saturation curve, 1 h room temperature, nonspecific binding with naloxone 100 μM
T7 construct: host or cells: HEK293T
T7 sequence (P41143 whole entry): as the sequence (P41143 whole entry) above

[10] = HTRF saturation curve, value of high uncertainty, saturation not reached
[11] = selectivity ratio of HTRF Kd values, high uncertainty

T1 sequence (P41143 whole entry): as above
T2 sequence (P35372 whole entry): as the sequence (P35372 whole entry) above

Row | SMILES | wash resistance ([1]; after 15 min of medium wash out) [%] | Ki [2] [nM] | μ/δ [2] | IC50 [3] [nM] | Emax [3] [%] | response in agonist mode [3] | IC50 [4] [nM] | Emax [4] [%] | response in agonist mode [4] | time after labeling at which labeled δOR molecules could still be observed diffusing on the plasma membrane [5] [h] | Ki [6] [nM] | κ/δ [6] | wash resistance ([1]; after 20 min of medium wash out) [%] | Kd [7, 10] [nM] | μ/δ [7, 11] | Kd [8, 10] [nM] | κ/δ [8, 11] | Kd [9] [nM]
1 | CN1/C(=C/C=C/C2=[N+](CCCCCC(=O)NCC(=O)NCC(=O)NCC(=O)NCC(=O)Nc3cccc4c5c([nH]c34)[C@@H]3Oc4c(O)ccc6c4[C@@]34CCN(CC3CC3)[C@H](C6)[C@]4(O)C5)c3ccc(S(=O)(=O)[O-])cc3C2(C)C)C(C)(C)c2cc(S(=O)(=O)O)ccc21 [6-Cy3, 1-(1-(((4bS,8R,8aS,14bR)-7-(cyclopropylmethyl)-1,8a-dihydroxy-5,6,7,8,8a,9,14,14b-octahydro-4,8-methanobenzofuro[2,3-a]pyrido[4,3-b]carbazol-13-yl)amino)-1,4,7,10,13-pentaoxo-3,6,9,12-tetraazaoctadecan-18-yl)-3,3-dimethyl-2-((E)-3-((E)-1,3,3-trimethyl-5-sulfoindolin-2-ylidene)prop-1-en-1-yl)-3H-indol-1-ium-5-sulfonate] | 69 ± 1 | 370 | 220 | 38 | < 10 | did not elicit a response | 47 | < 5 | did not elicit a response | 2 to 3 | 330 | 190 |  |  |  |  |  | 
2 | CN1/C(=C/C=C/C=C/C2=[N+](CCCCCC(=O)NCC(=O)NCC(=O)NCC(=O)NCC(=O)Nc3cccc4c5c([nH]c34)[C@@H]3Oc4c(O)ccc6c4[C@@]34CCN(CC3CC3)[C@H](C6)[C@]4(O)C5)c3ccc(S(=O)(=O)[O-])cc3C2(C)C)C(C)(C)c2cc(S(=O)(=O)O)ccc21 [6-Cy5, 1-(1-(((4bS,8R,8aS,14bR)-7-(cyclopropylmethyl)-1,8a-dihydroxy-5,6,7,8,8a,9,14,14b-octahydro-4,8-methanobenzofuro[2,3-a]pyrido[4,3-b]carbazol-13-yl)amino)-1,4,7,10,13-pentaoxo-3,6,9,12-tetraazaoctadecan-18-yl)-3,3-dimethyl-2-((1E,3E)-5-((E)-1,3,3-trimethyl-5-sulfoindolin-2-ylidene)penta-1,3-dien-1-yl)-3H-indol-1-ium-5-sulfonate] |  | 100 | 83 | 54 | < 5 | did not elicit a response | 33 | < 5 | did not elicit a response |  | 78 | 65 | 93 ± 1 | 215 ± 262 | 120 | 226 ± 131 | 126 | 1.8 ± 0.8
